Entries after “also recorded” stand apart in the source; their conditions may differ.
What was measured:
IDO1 = IDO1 (Mus musculus, UniProt P28776); assay: In vivo pharmacodynamics of IDO1: Kyn level in lung and plasma of LPS-induced C57BL/6 mice
Protocol: Prior to the experiment, 60 mg/kg sodium pentobarbital was injected into the abdominal cavity of the animals for anesthetizing. […] LPS was dissolved in PBS, and the dose is 25 μg/20 μL per animal. As a control, another 6 mice were received the same volume of PBS through the nasal cavity. Subsequently, the animals were housed as usual, and their plasma were collected at 25 h, 26 h, and 30 h after LPS/PBS induction, and the lung samples were collected at 26 h and 30 h (3 animals per a time point) and determined the kynurenine (Kyn) level.
Group 1, 40% polyethylene glycol 400 (PEG400) aqueous solution orally as a solvent control;
Group 2, 50 mg/kg NLG919 orally, formulated in 40% PEG400 aqueous solution;
Plasma were collected at 1 h, 2 h, 4 h and 6 h after the end of the last administration, and lung samples were collected at 2 h and 6 h (3 to 5 animals per a time point) and determined the Kyn level by the LC/MS method.

[1] = biological target: T1, IDO1 enzyme in Hela cells (Homo sapiens, UniProt P14902); assay: hIDO1 cytological activity assay (kynurenine in Hela cells by LC-MS); type: cell-based; conditions: Hela cells induced with 100 ng/mL recombinant human γ-interferon, 20 h, read-out: IC50 hIDO1 Cytoactive
T1 construct: recombinant human γ-interferon was added at a final concentration of 100 ng/mL to induce IDO1 expression; endogenous in cells; host or cells: Hela cells, induced with recombinant human γ-interferon
T1 sequence (P14902 whole entry): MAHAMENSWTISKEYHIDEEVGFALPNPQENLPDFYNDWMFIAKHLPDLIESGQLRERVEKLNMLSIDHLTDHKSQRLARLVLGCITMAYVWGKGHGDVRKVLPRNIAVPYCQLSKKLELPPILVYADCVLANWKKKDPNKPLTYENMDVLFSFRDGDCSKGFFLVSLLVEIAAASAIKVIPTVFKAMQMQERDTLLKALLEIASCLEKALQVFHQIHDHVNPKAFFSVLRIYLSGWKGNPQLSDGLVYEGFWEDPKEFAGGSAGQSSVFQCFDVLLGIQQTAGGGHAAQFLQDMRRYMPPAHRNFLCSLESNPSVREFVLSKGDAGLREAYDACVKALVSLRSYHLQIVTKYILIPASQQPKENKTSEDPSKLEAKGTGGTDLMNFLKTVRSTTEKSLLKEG
Protocol: The change of kynurenine in Hela cells was detected by the LC-MS method, and the IC50 value of the compound was used as an index, to evaluate the inhibitory effect of the compound on IDO1 enzyme.
A medium, trypsin and DPBS were pre-heated in a 37° C. water bath. The medium for cell culture was sucked out and washed with 10 mL of DPBS; then the pre-heated trypsin was added into the culture flask, and the flask was rotated to allow the trypsin to uniformly cover it, and then placed in a 37° C., 5% CO2 incubator and digested for 1-2 min; in each T150, cells were dispersed with 10-15 mL of medium, centrifuged at 800 rpm for 5 min, and then resuspended in 10 mL of medium; 1 mL of cell suspension was pipetted and the cells were counted with Vi-cell; Hela cells were diluted with medium to 5×10^5/mL, 80 μL of the solution was added to a 96-cell plate, and cultured at 37° C. for 5-6 h in a 5% CO2 incubator.
The compound was diluted to 1 mM in DMSO, and then diluted 3-fold in duplicate wells, with 9 gradients. 5 μL of the diluted solution of the compound in DMSO was added to the compound plate containing 95 μL of the medium, and mixed, followed by transferring 10 μL of the mixture to a cell plate.
10 μL of recombinant human γ-interferon was added at a final concentration of 100 ng/mL to induce IDO1 expression. The cells were incubated at 37° C. for 20 h in a 5% CO2 incubator. 4 μL of 5% (w/v) trichloroacetic acid was added thereto, mixed and incubated at 50° C. for 30 min. After centrifugation at 2400 rpm for 10 min, 40 μL of the supernatant was taken and placed in a 96-well V-bottom plate, and then a precipitant was added in the plate. After mixing, the mixture was centrifuged at 4000 rpm for 10 min. 100 μL of the supernatant was transferred to a new 96-well V-bottom plate. The content of kynurenine was determined by LC-MS.
The control wells having γ-interferon but no compound was set as 0% inhibition, and the control wells without Hela cell was set as 100% inhibition, and the IC50 value of the compound was calculated by analyzing the data with XLFit 5.

[2] = biological target: T2, recombinant human IDO1 enzyme (Homo sapiens, UniProt P14902); assay: In vitro hIDO1 enzyme activity test (NFK Green fluorescence); type: biochemical; conditions: recombinant human IDO1, L-tryptophan substrate, pH 6.5
T2 construct: purchased NTRC NTRC-hlDO-10K
T2 sequence (P14902 whole entry): as above
Outline: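 Recombinant human IDO1 diluted to 20 nM in pH 6.5 phosphate buffer with ascorbate, catalase and methylene blue, preincubated with compound 30 min at 23° C, then L-tryptophan added (400 μM solution) for 90 min. NFK Green developed 4 h at 37° C (Ex 400/Em 510 nm); IC50 from 10-point 3-fold series, no-enzyme wells as 100% inhibition.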

IDO1, sequence (P28776 whole entry): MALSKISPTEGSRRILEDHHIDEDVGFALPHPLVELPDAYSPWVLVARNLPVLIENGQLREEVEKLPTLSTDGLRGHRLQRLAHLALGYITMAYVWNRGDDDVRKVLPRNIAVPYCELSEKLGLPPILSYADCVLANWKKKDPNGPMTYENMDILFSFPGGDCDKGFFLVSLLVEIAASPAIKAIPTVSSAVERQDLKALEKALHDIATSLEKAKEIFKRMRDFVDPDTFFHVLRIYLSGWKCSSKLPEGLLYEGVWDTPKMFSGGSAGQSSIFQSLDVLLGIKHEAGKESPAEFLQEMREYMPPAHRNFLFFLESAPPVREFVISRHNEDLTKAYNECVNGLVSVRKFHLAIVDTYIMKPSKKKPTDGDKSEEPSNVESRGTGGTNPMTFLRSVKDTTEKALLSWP

SMILES | in vivo activity of IDO1 / reduction of the Kyn level in lung and plasma (IDO1; 50 mg/kg orally at 0, 12 h and 24 h after induction, plasma 1-6 h, lung 2 h and 6 h after last administration) | degree of Kyn level reduction in lung and plasma compared to NLG919 (IDO1; 50 mg/kg orally, comparison with NLG919 at same dose, 50 mg/kg) | IC50 [1] [nM] | IC50 [2] [nM]
OC(CC1c2sccc2-c2cncn21)C1CCCCC1 (single isomer, unassigned) [Example 7, cyclohexyl-2-(8H-thieno[3′,2′:3,4]pyrrolo[1,2-c]imidazol-8-yl)ethanol] | effectively inhibited in vivo activity of IDO1 and caused reduction of the Kyn level in lung and plasma | more significant than that of NLG919; also recorded: significantly reduced the Kyn level in lung and plasma | 5.08 | 7.22
O[C@@H](C[C@H]1c2sccc2-c2cncn21)C1CCC(F)(F)CC1 [Example 46, (1S)-1-(4,4-difluorocyclohexyl)-2-((S)-8H-thieno[3,4]pyrrolo[1,5-a]imidazol-8-yl)ethanol] |  |  | 28 | 11.4
FC1(F)C2CC(C3c4sccc4-c4cncn43)CC21 (single isomer, unassigned) [Example 77, 8-(6,6-difluoro-3-bicyclo[3.1.0]cyclohexyl)-8H-thieno[3,4]pyrrolo[1,5-a]imidazole (cis)] |  |  | 125 | 37
c1cc2c(s1)C(CC1CCCCC1)n1cncc1-2 (single isomer, unassigned) [Example 16, 8-(cyclohexylmethyl)-8H-thieno[3,4]pyrrolo[1,5-a]imidazole] |  |  | 911 | 71
FC1(F)[C@@H]2C[C@@H](C3c4sccc4-c4cncn43)C[C@@H]21 (single isomer, unassigned) [Example 62, 8-[6,6-difluoro-3-bicyclo[3.1.0]cyclohexyl]-8H-thieno[3,4]pyrrolo[1,5-a]imidazole (trans)] |  |  | 446 | 199
c1cc2c(s1)C(C1CCCCCC1)n1cncc1-2 (single isomer, unassigned) [Example 73, 8-cycloheptyl-8H-thieno[3,4]pyrrolo[1,5-a]imidazole] |  |  | > 5000 | > 10000

— patent US10487088B2, “Tricyclic compound serving as immunomodulator” (Chia Tai Tianqing Pharmaceutical Group Co., Ltd., priority 2016, dated 2019)
